SMILES strings stand for the structures.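 Protocol summary: plate cells (96-well), add compound at 5 concentrations, incubate 48 h, interpolate endpoints linearly. GI50: concentration for 50% inhibition of growth. TGI denotes the concentration required for complete inhibition of growth.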

One assay has as its system RXF 393 renal. Kind of assay: NCI-60 cell line screen, 48 h.
Consider `Fc1c(F)c(C(F)(F)F)c(F)c(F)c1N/N=C\c1c[nH]c2ccccc12`, for which the TGI was found to be 7.93 µM.

Take `COc1cc2c(/C=C3/C(=O)Nc4ccc(Cl)cc43)c(Cl)n(Cc3ccccc3)c2cc1C`: the TGI is 5.18 µM.

As for `O=C(O)C(=C\c1ccc2c(c1)OCO2)/C(=C/c1ccc2c(c1)OCO2)C(=O)O`, the TGI was above 100 µM.

As to `COc1ccc(-c2ccc(-c3ccc(C(=N)N)nc3)s2)cc1`, the GI50 was 1.77 µM and the TGI was determined as 3.34 µM.

As to `N#CC(C#N)=CN1CCN(C(=O)c2ccco2)C1=S`, the GI50 is 2.63 µM and the TGI stood at 6.6 µM.

As to `COc1ccc2c(c1)CC[C@@H]1[C@@H]2CC[C@]2(C)C(=O)C3(CCCCC3)C[C@@H]12`, the GI50 is above 100 µM and the TGI is above 100 µM.

`NS(=O)(=O)c1cc2c(cc1Cl)NC(C(=O)c1cc(=O)c3ccc(O)cc3o1)=NS2(=O)=O`: the TGI is above 100 µM.

In turn, `O=C(NO)c1ccc([N+](=O)[O-])cc1` showed a TGI of 71.8 µM.

Take `Cc1c(C#N)c2nnn(C)c(=O)n2c1-c1ccccc1`: the TGI was above 100 µM.

Another assay has as its system SK-MEL-5 melanoma. Kind of assay: NCI-60 cell line screen, 48 h.
In turn, `Fc1c(F)c(C(F)(F)F)c(F)c(F)c1N/N=C\c1c[nH]c2ccccc12` yielded a TGI of 4.04 µM.

In turn, `COc1cc2c(/C=C3/C(=O)Nc4ccc(Cl)cc43)c(Cl)n(Cc3ccccc3)c2cc1C` registered a TGI of 13.7 µM.

As for `O=C(O)C(=C\c1ccc2c(c1)OCO2)/C(=C/c1ccc2c(c1)OCO2)C(=O)O`, the TGI was above 100 µM.

Turning to `COc1ccc(-c2ccc(-c3ccc(C(=N)N)nc3)s2)cc1`, the GI50 is 1.79 µM and the TGI came out at 3.26 µM.

For `N#CC(C#N)=CN1CCN(C(=O)c2ccco2)C1=S`, the GI50 was 2.87 µM and the TGI stood at 8.07 µM.

In the case of `COc1ccc2c(c1)CC[C@@H]1[C@@H]2CC[C@]2(C)C(=O)C3(CCCCC3)C[C@@H]12`, the GI50 was above 100 µM and the TGI is above 100 µM.

`NS(=O)(=O)c1cc2c(cc1Cl)NC(C(=O)c1cc(=O)c3ccc(O)cc3o1)=NS2(=O)=O`: the TGI is above 100 µM.

Molecule `CC(=O)OCC(=O)[C@@]1(O)CC[C@H]2[C@@H]3CCC4=CC(=O)[C@H](C)C[C@]4(C)[C@H]3[C@@H](O)C[C@@]21C` gave a TGI above 100 µM.

Regarding `O=C(NO)c1ccc([N+](=O)[O-])cc1`, the TGI was above 100 µM.

The subject of another assay is SK-OV-3 ovarian. Put plainly: NCI-60 cell line screen, 48 h.
Take `Fc1c(F)c(C(F)(F)F)c(F)c(F)c1N/N=C\c1c[nH]c2ccccc12`: the TGI was found to be 12.9 µM.

With `COc1cc2c(/C=C3/C(=O)Nc4ccc(Cl)cc43)c(Cl)n(Cc3ccccc3)c2cc1C`, the TGI turned out to be 4.41 µM.

As to `O=C(O)C(=C\c1ccc2c(c1)OCO2)/C(=C/c1ccc2c(c1)OCO2)C(=O)O`, the TGI is above 100 µM.

Turning to `COc1ccc(-c2ccc(-c3ccc(C(=N)N)nc3)s2)cc1`, the GI50 was 1.7 µM and the TGI worked out at 3.23 µM.

In the case of `N#CC(C#N)=CN1CCN(C(=O)c2ccco2)C1=S`, the GI50 is 33.1 µM and the TGI came out at 86.5 µM.

Consider `COc1ccc2c(c1)CC[C@@H]1[C@@H]2CC[C@]2(C)C(=O)C3(CCCCC3)C[C@@H]12`, for which the GI50 was above 100 µM and the TGI was above 100 µM.

`NS(=O)(=O)c1cc2c(cc1Cl)NC(C(=O)c1cc(=O)c3ccc(O)cc3o1)=NS2(=O)=O`: the TGI was above 100 µM.

Molecule `CC(=O)OCC(=O)[C@@]1(O)CC[C@H]2[C@@H]3CCC4=CC(=O)[C@H](C)C[C@]4(C)[C@H]3[C@@H](O)C[C@@]21C` yielded a TGI above 100 µM.

`O=C(NO)c1ccc([N+](=O)[O-])cc1` registered a TGI above 100 µM.

Molecule `Cc1c(C#N)c2nnn(C)c(=O)n2c1-c1ccccc1` showed a TGI above 100 µM.

Another assay concerns OVCAR-4 ovarian. Kind of assay: NCI-60 cell line screen, 48 h.
`Fc1c(F)c(C(F)(F)F)c(F)c(F)c1N/N=C\c1c[nH]c2ccccc12` displayed a TGI of 6.72 µM.

For `O=C(O)C(=C\c1ccc2c(c1)OCO2)/C(=C/c1ccc2c(c1)OCO2)C(=O)O`, the TGI was above 100 µM.

For the molecule `COc1ccc(-c2ccc(-c3ccc(C(=N)N)nc3)s2)cc1`, the GI50 is 1.79 µM and the TGI worked out at 3.3 µM.

Consider `N#CC(C#N)=CN1CCN(C(=O)c2ccco2)C1=S`, for which the GI50 was 20.1 µM and the TGI turned out to be 46 µM.

For `COc1ccc2c(c1)CC[C@@H]1[C@@H]2CC[C@]2(C)C(=O)C3(CCCCC3)C[C@@H]12`, the GI50 is above 100 µM and the TGI is above 100 µM.

In turn, `NS(=O)(=O)c1cc2c(cc1Cl)NC(C(=O)c1cc(=O)c3ccc(O)cc3o1)=NS2(=O)=O` yielded a TGI above 100 µM.

As for `CC(=O)OCC(=O)[C@@]1(O)CC[C@H]2[C@@H]3CCC4=CC(=O)[C@H](C)C[C@]4(C)[C@H]3[C@@H](O)C[C@@]21C`, the TGI is above 100 µM.

`Cc1c(C#N)c2nnn(C)c(=O)n2c1-c1ccccc1` came in with a TGI above 100 µM.

The test system of a further assay is SK-MEL-28 melanoma. Put plainly: NCI-60 cell line screen, 48 h.
As for `Fc1c(F)c(C(F)(F)F)c(F)c(F)c1N/N=C\c1c[nH]c2ccccc12`, the TGI came out at 20 µM.

The molecule `COc1cc2c(/C=C3/C(=O)Nc4ccc(Cl)cc43)c(Cl)n(Cc3ccccc3)c2cc1C` showed a TGI of 9.46 µM.

Consider `O=C(O)C(=C\c1ccc2c(c1)OCO2)/C(=C/c1ccc2c(c1)OCO2)C(=O)O`, for which the TGI is above 100 µM.

With `COc1ccc(-c2ccc(-c3ccc(C(=N)N)nc3)s2)cc1`, the GI50 was 1.75 µM and the TGI was found to be 3.27 µM.

`N#CC(C#N)=CN1CCN(C(=O)c2ccco2)C1=S`: the GI50 was 12.5 µM and the TGI is above 100 µM.

As for `COc1ccc2c(c1)CC[C@@H]1[C@@H]2CC[C@]2(C)C(=O)C3(CCCCC3)C[C@@H]12`, the GI50 is above 100 µM and the TGI was above 100 µM.

For the origin of these results see PubChem BioAssay (NCI).
